The values below come from patent US20160022689A1, “Triazine compound for resisting coccidiosis in chickens” (SHANGHAI VETERINARY RESEARCH INSTITUTE, CHINESE ACADEMY OF …, priority 2013, published 2016).

Where “and” joins values, the source holds several entries; their conditions need not be identical. Identical values can stand only once. Like-named read-outs stand apart in the source and are kept apart here.

One data set relates to Eimeria tenella. The data set can be described thus: AZL application in preventing the coccidiosis induced by Eimeria tenella (drug in feed, infected cockerels). It is filed as in vivo. Set-up: key to ACI (anticoccidial index): ACI = (rel. weight gain + survival) − (lesion score + oocyst value); key to Cecal lesion score: average Johnson-Reid lesion score in group ×10. As to conditions: for ACI (anticoccidial index): ACI=(relative weight gain rate+survival rate)-(cecal lesion score+oocyst value); for Cecal lesion score: average lesion score in group x10; for Survival rate %: cockerels infected with 80000 sporulated oocysts of Eimeria tenella; for Relative weight gain rate %: relative to healthy control group; for Oocyst value: score from OPG ratio to infection control. The method, then:
Application of AZL in Preventing the Coccidiosis Induced by Eimeria tenella
One-day-old Pudong yellow feather cockerels
If needed, it is added into the chicken compound feed without other drugs and well mixed. Two AZL concentrations are set: 5 mg/kg and 10 mg/kg.
If needed, it is added into the compound feed without other drugs and well mixed. Two drug concentrations are set: 5 mg/kg and 10 mg/kg.
4) Raw diclazuril material: If needed, it is added into the compound feed without other drugs and well mixed, with the diclazuril concentration of 1 mg/kg.
After 90 one-day-old Pudong yellow feather cockerels were raised in the healthy animal room for 14 days. They were divided into 9 groups randomly, with 10 cockerels each group. One of these groups was the healthy control group. The AZL addition groups had two different treatments (5 mg/kg and 10 mg/kg). In the groups with the addition of compounds with structural formula (IV) and (V) respectively, two concentrations were set as AZL. The diclazuril addition group at the concentration of 1 mg/kg was taken as drug control group. Besides, an infection control group was also established.
After grouping, the seven drug addition groups were fed with the feed containing specified drugs, while infection and healthy control groups were fed using pure feed without drugs. Each group drank freely. At the age of 15 day old, each cockerel in all the groups was infected with 80000 sporulated oocysts of Eimeria tenella, except for the healthy control group.
During the experimental period, food and water intake, mental state, illness and bloody stool were observed and recorded every day. At 5, 6 and 7 d after infection, the excrement in each group was collected to count the number of oocysts. The highest value was used for ACI calculation. During the experimental period, chicken death status was observed every day and the dead ones were autopsied. On the 8th day, chickens in all the groups were weighted and killed to observe and record weight gain and cecal lesion status.
1.5.1 Death rate: The percentage of the number of dead chicken because of infection to total number of experimental chicken.
1.5.2 Relative weight gain rate: The percentage of average weight gain of chickens in each infection group to that in the healthy control group
1.5.3 Cecal lesion score: It is scored by referring to the method by Johnson and Reid (Johnson J, Reid W M. Anticoccidial drugs: lesion scoring techniques in battery and floor-pan experiments with chickens.
Experimental Parasitology, 1970, 28 (1): 30-36). Cecal lesion score=average lesion score in a group×10.
1.5.4 Oocyst value: Cecal contents from all the chickens in each group were well mixed. The number of oocysts per gram (OPG) was calculated via Mc-Master's method. Ratio of oocyst number=(OPG in the negative control group or drug addition group÷OPG in the positive control group)×100% If the ratio is 0-1%, oocyst value is 0; if the ratio is 2%-25%, oocyst value is 5; if the ratio is 26%-50%, oocyst value is 10; if the ratio is 51%-75%, oocyst value is 20; if the ratio is 76%-100%, oocyst value is 40.
1.5.5 Anticoccidial index: ACI=(relative weight gain rate+survival rate)−(cecal lesion score+oocyst value)

Data set [1] can be described thus: Acute toxicity test (LD50) of AZL in rats, oral gavage. To be noted: both sexes, Sprague Dawley, rat, in vivo, po, single oral gavage, improved Karber's method. It is filed as in vivo, rat. The method, then:
(§1) Acute Toxicity Test (LD50) of AZL in Rats
(§2) AZL (99.10%): made by Shanghai Veterinary Research Institute, CAAS
(§3) Drug solvent: 0.5% sodium carboxymethyl cellulose
(§4) Before administration, AZL was added into 0.5% sodium carboxymethyl cellulose to prepare suspensions at different concentrations.
(§5) 1.2 Experimental animals: Specific pathogen-free (SPF) Sprague Dawley rats (50% female vs 50% male) were purchased from Shanghai Super-B&K laboratory animal Co., Ltd. (license number: SCXK (Hu): 2008-0016). Male and female rats were raised separately in the cages for more than 4 days before the experiments.
(§6) Through repeated preliminary experiments, the interval of LD0-LD100 was determined According to this interval, groups were divided and the interval between groups was determined. Eighty rats (180-220 g) were selected and randomly divided into 8 groups. Each group had 10 rats, with the same number of female and male. Drug dosage in 7 groups were 2358, 3000, 3817, 4856, 6178, 7860, and 10000 mg/kg, respectively. The rats in these groups received oral gavage once. The remaining one group was chosen as negative control group which was drenched orally with drug solvent. After administration, this group was continuously observed for 14 days to calculate the death rate.

For another data set, the system named is Sprague Dawley rats. The data set is described as above. It is filed as in vivo, rat. To be noted: oral gavage once, 14 days. Here is the method: as §1, §2, §3, §4, §5, §6
The test system of a further data set is rats. As to conditions: acute oral, improved Karber's method; cited from earlier work.
Where [2] appears, read: drug concentration in feed 5 mg/kg.
Where [3] appears, read: drug concentration in feed 10 mg/kg.
[4] abbreviates: drug concentration in feed 1 mg/kg.

For `CC(=O)Nc1ccc(Oc2ccc(-n3ncc(=O)[nH]c3=O)cc2C)cc1` [AZL, 2-{3-methyl-4-(4′-acetamidophenoxy)phenyl}-1,2,4-triazine-3,5(2H,4H)^− diketone], the “ACI (anticoccidial index)” value in the data set with Eimeria tenella (setting [2]) was 180.8; with Eimeria tenella (setting [3]) it was 189 and 189.1; with Eimeria tenella (drug concentration in feed 10 mg/kg, listed as compound with structural formula (I)) it was 189. For the same molecule, the Cecal lesion score in the data set with Eimeria tenella (setting [2]) and in the data set with Eimeria tenella (setting [3]) was 5 each time. Besides, the Survival rate % in the data set with Eimeria tenella (setting [2]) and in the data set with Eimeria tenella (setting [3]) was 100% throughout. Further, the “Relative weight gain rate %” value in the data set with Eimeria tenella (setting [2]) is 90.8%; with Eimeria tenella (setting [3]), 99.1%. Besides, the Oocyst value with Eimeria tenella (setting [2]) and in the data set with Eimeria tenella (setting [3]) was 5 in each case. Also, the LD50 at 14 days in data set [1] (14 days observation, read-out: LD50) is 4740 mg/kg; in data set [1] (read-out: 95% confidence limit of LD50), 3750 to 5990 mg/kg. The Death rate % with Sprague Dawley rats (dosage 2358 mg/kg) was determined as 0%; in the data set on Sprague Dawley rats (dosage 3000 mg/kg) it was 30%; with Sprague Dawley rats (dosage 3817 mg/kg) it was 50%; in the data set with Sprague Dawley rats (dosage 4856 mg/kg), 50%; in the data set with Sprague Dawley rats (dosage 6178 mg/kg), 70%; in the data set with Sprague Dawley rats (dosage 7860 mg/kg), 70%. In the data set with Sprague Dawley rats (dosage 10000 mg/kg), this molecule had a Death rate % of 90%.
On to `Cc1cc(-n2ncc(=O)[nH]c2=O)ccc1Oc1ccc([N+](=O)[O-])cc1` [Compound with structural formula IV, 2-{3-methyl-4-(4′-nitrophenoxy)phenyl}-1,2,4-triazine-3,5(2H,4H)-diketone, reference compound], for which, in the data set with Eimeria tenella (setting [2]), the “ACI (anticoccidial index)” value is recorded as 182.2, the Cecal lesion score came to 5, the Survival rate % was determined as 100% and the “Relative weight gain rate %” value stood at 92.2%. In addition, the Oocyst value in the data set on Eimeria tenella (setting [2]) is 5. In addition, in the data set on Eimeria tenella (setting [3]), the “ACI (anticoccidial index)” value is reported as 190.0, the Cecal lesion score is listed as 5, the Survival rate % is on record as 100% and the “Relative weight gain rate %” value came out at 95.0%. For the same molecule, the Oocyst value in the data set on Eimeria tenella (setting [3]) amounted to 0. Besides, in the data set on rats, the “95% confidence limit of LD50” value was 644 to 916 mg/kg and the “median lethal dose (LD50)” value is recorded as 768 mg/kg.
For the molecule `Cc1cc(-n2ncc(=O)[nH]c2=O)ccc1Oc1ccc(N)cc1` [Compound with structural formula V, 2-{3-methyl-4-(4′-aminophenoxy)phenyl}-1,2,4-triazine-3,5(2H,4H)^− diketone], in the data set on Eimeria tenella (setting [2]), the “ACI (anticoccidial index)” value came to 151.5, the Cecal lesion score worked out at 15, the Survival rate % is listed as 100% and the “Relative weight gain rate %” value is given as 81.5%. Also, in the data set with Eimeria tenella (setting [2]), the Oocyst value was 15. Moreover, in the data set with Eimeria tenella (setting [3]), the “ACI (anticoccidial index)” value was determined as 158.1, the Cecal lesion score was 10, the Survival rate % was 100% and the “Relative weight gain rate %” value is on record as 83.1%. Moreover, in the data set with Eimeria tenella (setting [3]), the Oocyst value was determined as 15.
On to `N#CC(c1ccc(Cl)cc1)c1c(Cl)cc(-n2ncc(=O)[nH]c2=O)cc1Cl` (centres unmarked) [Diclazuril, diclazuril, reference compound], for which, in the data set with Eimeria tenella (setting [4]), the “ACI (anticoccidial index)” value was 182.1, the Cecal lesion score is 5, the Survival rate % is 100% and the “Relative weight gain rate %” value was 92.1%. Also, the Oocyst value in the data set with Eimeria tenella (setting [4]) was determined as 5.

One may read the LD50 as the dose expected to kill half of the subjects tested.
